Experimental data reported in patent publication EP3318127A1, “COMPOSITIONS COMPRISING KHCO3” (BASF SE, priority 2013, dated 2015).

Key:
Format in all cases: cell-based
Septoria tritici = experiment: Activity against leaf blotch on wheat caused by Septoria tritici (microtiter plate test); conditions: 0.25 ppm; 7 days after inoculation, 405 nm
Sclerotinia sclerotiorum = experiment: Activity against stem rot on wheat caused by Sclerotinia sclerotiorum (microtiter plate test); conditions: 7 days after inoculation, 405 nm
Botrytis cinerea = experiment: Activity against the grey mold Botrytis cinerea in the microtiterplate test; conditions: 7 days after inoculation, 405 nm
Pyricularia oryzae = conditions: 4 ppm; 7 days after inoculation, 405 nm

Row | SMILES | Observed efficacy (Septoria tritici) [%] | Observed efficacy (Sclerotinia sclerotiorum; 1 ppm) [%] | Observed efficacy (Sclerotinia sclerotiorum; 4 ppm) [%] | Observed efficacy (Sclerotinia sclerotiorum; 16 ppm) [%] | Observed efficacy (Botrytis cinerea; 1 ppm) [%] | Observed efficacy (Botrytis cinerea; 4 ppm) [%] | Observed efficacy (Pyricularia oryzae) [%]
1 | O=C(Nc1ccccc1-c1ccc(Cl)cc1)c1cccnc1Cl [Boscalid, 2-chloro-N-(4'-chlorobiphenyl-2-yl)-nicotinamide] | 40 | – | – | – | – | – | –
2 | Cc1cc(C)nc(Nc2ccccc2)n1 [Pyrimethanil, 4,6-dimethylpyrimidin-2-ylphenylamine] | – | 20 | 27 | 49 | 39 | 60 | 37
